Common to all, as to assay type: biochemical
One experiment has as its target T1, α-D-glucosidase (Yeast) (Saccharomyces cerevisiae, UniProt P53341).
T1 construct: purchased Sigma
The experiment in a line: Glycosidase inhibition: α-D-glucosidase (Yeast). Particulars: compounds tested at 0.8 mM. The source says:
(§1) The results tabulated below were obtained using commercially available glycosidases and p-nitrophenyl-substrates using standard methods described for example by Watson et al (1997) Phytochemistry 46 255-259. All enzymes and substrates were bought from Sigma. Enzyme and substrate solutions were made using sodium phosphate buffers at the pH optima values. The enzymes used were α-D-glucosidase Saccharomyces cerevisiae, Bacillus stearothermophilus, Oryzae sativa), β-D-glucosidase (Almond), α-D-mannosidase (Jack bean), α-D-galactosidase (Green coffee beans), β-D-galactosidase (Bovine liver), α-L-fucosidase (Bovine kidney), N-acetyl-β-D-glucosaminidase (Bovine kidney, Jack bean, Aspergillus oryzae), Naringinase (Penicillium decumbens) and amyloglucosidase (Aspergillus niger). All enzymes were used with the appropriate p-nitrophenyl substrates (5 mM). Amyloglucosidase activity was measured using amylopectin (0.1%) (Merck) mixed with sodium phosphate buffer, pH 4.5 in a glass bottle, and healed in a boiling water bath for 20 minutes to dissolve with released glucose measured using ‘Trinder’ glucose detection solution (Sigma).
(§2) All enzymes and para-nitrophenyl substrates were purchased from Sigma, with the exception of beta-mannosidase which came from Megazyme. Enzymes were assayed at 27° C. in 0.1M citric acid/0.2M disodium hydrogen phosphate buffers at the optimum pH for the enzyme. The incubation mixture consisted of 10 μl enzyme solution, 10 μl of 1 mg/ml aqueous solution of extract and 50 μl of the appropriate 5 mM para-nitrophenyl substrate made up in buffer at the optimum pH for the enzyme. The reactions were stopped by addition of 70 μl 0.4M glycine (pH 10.4) during the exponential phase of the reaction, which had been determined at the beginning using uninhibited assays in which water replaced inhibitor. Final absorbances were read at 405 nm using a Versamax microplate reader (Molecular Devices). Assays were carried out in triplicate, and the values given are means of the three replicates per assay. (See Watson, A. A., Nash, R. J., Wormald, M. R., Harvey, D. J., Dealler, S., Lees, E., Asano, N., Kizu, H., Kato, A., Griffiths, R. C., Cairns, A. J. and Fleet, G. W. J. (1997). Glycosidase-inhibiting pyrrolidine alkaloids from Hyacinthoides non-scripta. Phytochemistry 46 (2): 255-259.)

Experiment [1] concerns the target α-D-glucosidase (Bacillus) (Geobacillus stearothermophilus, UniProt A0ACH1E9U3). The experiment in a line: Glycosidase inhibition: α-D-glucosidase (Bacillus). The conditions noted are these: compounds tested at 0.8 mM.
Description: as §1, §2

The target in experiment [2] is T2, α-D-galactosidase Green coffee bean (Coffea arabica, UniProt Q42656).
T2 construct: α-D-galactosidase (Green coffee beans); purchased Sigma; host or cells: green coffee beans
The experiment in a line: Glycosidase inhibition: α-D-galactosidase Green coffee bean. The conditions noted are these: compounds tested at 0.8 mM.
Description: as §1, §2

The target in experiment [3] is T3, α-D-mannosidase Jack bean (Canavalia ensiformis, UniProt C0HJB3).
T3 construct: α-D-mannosidase (Jack bean); purchased Sigma
T3 sequence (C0HJB3 1-981): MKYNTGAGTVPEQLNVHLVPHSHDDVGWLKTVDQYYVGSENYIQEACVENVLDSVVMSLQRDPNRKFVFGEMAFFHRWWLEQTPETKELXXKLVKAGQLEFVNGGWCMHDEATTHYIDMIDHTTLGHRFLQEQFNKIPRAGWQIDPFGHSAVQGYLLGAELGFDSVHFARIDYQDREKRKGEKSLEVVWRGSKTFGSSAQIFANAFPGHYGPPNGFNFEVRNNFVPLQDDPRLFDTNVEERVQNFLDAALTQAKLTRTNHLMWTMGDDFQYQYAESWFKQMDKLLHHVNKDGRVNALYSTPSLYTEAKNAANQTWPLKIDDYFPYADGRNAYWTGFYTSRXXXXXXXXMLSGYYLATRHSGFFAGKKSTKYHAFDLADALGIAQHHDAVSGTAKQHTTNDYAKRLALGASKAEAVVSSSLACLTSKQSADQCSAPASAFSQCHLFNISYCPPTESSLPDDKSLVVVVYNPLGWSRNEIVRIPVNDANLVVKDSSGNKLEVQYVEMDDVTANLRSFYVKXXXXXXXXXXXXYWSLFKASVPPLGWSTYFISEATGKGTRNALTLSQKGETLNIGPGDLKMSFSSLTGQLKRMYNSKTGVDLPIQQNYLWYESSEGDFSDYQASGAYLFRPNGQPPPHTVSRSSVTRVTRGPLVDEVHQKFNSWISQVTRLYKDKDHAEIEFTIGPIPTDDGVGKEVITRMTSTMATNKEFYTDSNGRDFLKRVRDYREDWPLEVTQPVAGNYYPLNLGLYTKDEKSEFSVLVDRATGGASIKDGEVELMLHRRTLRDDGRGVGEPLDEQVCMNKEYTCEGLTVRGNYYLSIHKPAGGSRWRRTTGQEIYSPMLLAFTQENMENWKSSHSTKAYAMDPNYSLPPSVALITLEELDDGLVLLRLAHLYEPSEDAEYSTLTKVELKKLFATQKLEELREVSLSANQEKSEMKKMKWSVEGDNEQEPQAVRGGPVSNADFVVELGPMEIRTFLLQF
The experiment in a line: Glycosidase inhibition: α-D-mannosidase Jack bean. The conditions noted are these: compounds tested at 0.8 mM.

The target in experiment [4] is T4, β-Glucuronidase Bovine liver (Bos taurus, UniProt A3KMY8).
T4 construct: The assay involved the use of Bovine liver β-glucuronidase; purchased Sigma; host or cells: bovine liver
T4 sequence (A3KMY8 1-652): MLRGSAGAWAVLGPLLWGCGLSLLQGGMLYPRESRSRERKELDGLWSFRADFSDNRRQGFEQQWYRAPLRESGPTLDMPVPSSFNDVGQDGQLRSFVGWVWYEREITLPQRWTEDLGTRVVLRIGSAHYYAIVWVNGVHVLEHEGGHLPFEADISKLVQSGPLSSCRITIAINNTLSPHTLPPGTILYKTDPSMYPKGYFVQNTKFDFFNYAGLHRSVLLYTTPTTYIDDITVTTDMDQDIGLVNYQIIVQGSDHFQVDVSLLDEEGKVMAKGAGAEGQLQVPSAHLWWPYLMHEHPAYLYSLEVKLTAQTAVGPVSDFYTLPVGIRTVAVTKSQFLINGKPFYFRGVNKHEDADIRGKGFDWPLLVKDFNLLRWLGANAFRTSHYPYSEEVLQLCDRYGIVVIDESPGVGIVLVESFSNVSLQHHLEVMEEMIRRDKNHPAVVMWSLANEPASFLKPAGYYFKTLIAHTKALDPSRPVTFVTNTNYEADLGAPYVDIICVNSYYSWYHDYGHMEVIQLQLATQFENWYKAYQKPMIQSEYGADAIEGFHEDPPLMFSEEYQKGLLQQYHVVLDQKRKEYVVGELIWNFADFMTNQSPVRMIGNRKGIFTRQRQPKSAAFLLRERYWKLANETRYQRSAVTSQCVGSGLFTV
Put plainly: Glycosidase inhibition: β-Glucuronidase Bovine liver.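 As to all read-outs here: bovine liver β-glucuronidase acting on p-nitrophenyl β-D-glucuronide substrate in citric acid/disodium hydrogen phosphate buffer, pH 5.0, 27 °C, mean of triplicate runs.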 The conditions noted are these: for inhibition at 800 µM: compounds tested at 0.8 mM.

Another experiment has as its target T5, α-D-glucosidase (Rice) (Oryza sativa subsp. japonica, UniProt Q653V7).
T5 construct: purchased Sigma
The experiment in a line: Glycosidase inhibition: α-D-glucosidase (Rice). Particulars: for inhibition at 800 µM: compounds tested at 0.8 mM.

Experiment [5] deals with Naringinase Penicillium decumbens. Put plainly: Glycosidase inhibition: Naringinase Penicillium decumbens. Particulars: compounds tested at 0.8 mM.
Description: as §1
as §2, with “(See Watson, A. A., Nash, R. J., Wormald, M. R., Harvey, D. J., Dealler, S., Lees, E., Asano, N., Kizu, H., Kato, A., Griffiths, R. C., Cairns, A. J. and Fleet, G. W. J. (1997). Glycosidase-inhibiting pyrrolidine alkaloids from Hyacinthoides non-scripta. Phytochemistry 46 (2): 255-259.)” left out

The mark [6] stands for this setting: read-out: IC50 against mammalian glucuronidase.
[7] abbreviates: pH 5.0, 27° C., p-nitrophenyl β-D-glucuronide, read-out: IC50, β-Glucuronidase Bovine liver.

SMILES strings stand for the structures. “And” between values parts separate entries of the source, which are not always exact repeats. Equal entries are not always repeated. Where two headings read alike, the source gives them in different places.

Sequence of α-D-glucosidase (Bacillus) (A0ACH1E9U3 entry or part of it): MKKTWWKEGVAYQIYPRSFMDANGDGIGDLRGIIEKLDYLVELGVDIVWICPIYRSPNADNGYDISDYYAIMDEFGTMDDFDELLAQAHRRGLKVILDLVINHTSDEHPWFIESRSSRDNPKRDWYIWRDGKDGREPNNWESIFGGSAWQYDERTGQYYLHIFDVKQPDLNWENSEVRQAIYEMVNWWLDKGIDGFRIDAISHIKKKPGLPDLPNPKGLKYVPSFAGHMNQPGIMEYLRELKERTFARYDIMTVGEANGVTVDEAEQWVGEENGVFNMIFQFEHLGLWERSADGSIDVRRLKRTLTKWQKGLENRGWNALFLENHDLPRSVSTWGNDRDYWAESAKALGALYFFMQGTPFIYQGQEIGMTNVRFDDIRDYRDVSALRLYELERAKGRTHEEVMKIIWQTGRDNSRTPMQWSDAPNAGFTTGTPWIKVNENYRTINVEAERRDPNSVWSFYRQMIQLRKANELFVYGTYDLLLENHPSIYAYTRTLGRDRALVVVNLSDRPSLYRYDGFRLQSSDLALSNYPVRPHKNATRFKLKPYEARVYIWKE
T5 sequence (Q653V7 34-885): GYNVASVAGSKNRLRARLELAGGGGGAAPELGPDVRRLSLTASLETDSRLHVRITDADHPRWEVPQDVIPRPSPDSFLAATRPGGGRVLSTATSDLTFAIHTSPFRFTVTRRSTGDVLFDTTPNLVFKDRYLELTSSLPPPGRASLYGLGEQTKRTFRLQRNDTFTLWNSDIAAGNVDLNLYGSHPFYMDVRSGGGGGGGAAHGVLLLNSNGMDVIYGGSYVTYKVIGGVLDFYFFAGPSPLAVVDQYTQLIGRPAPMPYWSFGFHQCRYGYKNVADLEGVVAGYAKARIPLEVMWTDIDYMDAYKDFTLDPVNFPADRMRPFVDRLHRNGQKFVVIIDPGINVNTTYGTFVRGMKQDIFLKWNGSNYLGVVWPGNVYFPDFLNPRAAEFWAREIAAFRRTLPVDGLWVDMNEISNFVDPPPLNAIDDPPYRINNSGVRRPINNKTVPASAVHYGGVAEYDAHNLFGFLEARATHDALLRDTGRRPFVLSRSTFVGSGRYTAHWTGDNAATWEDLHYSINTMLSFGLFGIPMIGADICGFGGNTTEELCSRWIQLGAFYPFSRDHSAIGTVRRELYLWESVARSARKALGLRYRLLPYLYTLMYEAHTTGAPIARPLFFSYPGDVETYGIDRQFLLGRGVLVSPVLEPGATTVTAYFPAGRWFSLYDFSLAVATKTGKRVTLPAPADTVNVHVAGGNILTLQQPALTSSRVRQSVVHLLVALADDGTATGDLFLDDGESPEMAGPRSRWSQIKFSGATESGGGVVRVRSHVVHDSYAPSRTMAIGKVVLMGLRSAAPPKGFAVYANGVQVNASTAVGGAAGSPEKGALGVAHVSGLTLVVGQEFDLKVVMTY
T1 sequence (P53341 whole entry): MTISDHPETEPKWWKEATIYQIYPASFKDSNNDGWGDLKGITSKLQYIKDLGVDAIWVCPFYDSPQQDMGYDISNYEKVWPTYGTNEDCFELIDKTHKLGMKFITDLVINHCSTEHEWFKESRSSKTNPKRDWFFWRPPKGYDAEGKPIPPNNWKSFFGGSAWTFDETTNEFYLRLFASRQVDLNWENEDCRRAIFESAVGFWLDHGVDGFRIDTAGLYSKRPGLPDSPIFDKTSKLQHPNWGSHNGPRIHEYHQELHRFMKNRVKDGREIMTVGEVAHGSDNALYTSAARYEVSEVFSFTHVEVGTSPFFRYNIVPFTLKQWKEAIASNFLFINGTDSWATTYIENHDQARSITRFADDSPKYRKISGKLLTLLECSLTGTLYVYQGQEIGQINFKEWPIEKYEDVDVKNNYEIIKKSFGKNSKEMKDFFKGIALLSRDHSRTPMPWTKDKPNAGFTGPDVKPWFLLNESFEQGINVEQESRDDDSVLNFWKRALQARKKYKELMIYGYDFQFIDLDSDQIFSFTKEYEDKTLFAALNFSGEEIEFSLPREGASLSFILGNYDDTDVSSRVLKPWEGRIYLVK
T2 sequence (Q42656 16-378): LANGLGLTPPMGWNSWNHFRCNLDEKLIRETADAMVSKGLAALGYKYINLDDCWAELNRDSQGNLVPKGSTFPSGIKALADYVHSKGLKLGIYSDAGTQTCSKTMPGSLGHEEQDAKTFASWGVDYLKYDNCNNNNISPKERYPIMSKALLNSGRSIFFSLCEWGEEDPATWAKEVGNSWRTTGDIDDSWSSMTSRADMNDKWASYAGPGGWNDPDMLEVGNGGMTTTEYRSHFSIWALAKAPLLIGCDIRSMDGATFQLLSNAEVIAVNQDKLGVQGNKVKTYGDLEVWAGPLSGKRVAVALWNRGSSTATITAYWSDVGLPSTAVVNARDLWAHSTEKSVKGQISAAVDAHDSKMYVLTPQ

Regarding `O=C(O)[C@H]1NC[C@H](O)[C@@H](O)[C@@H]1O` [Compound G2, 2S,3R,4R,5S-trihydroxypiperidine-2-carboxylic acid], the inhibition (as a rule, the share of the control response that was lost under treatment) at 800 µM at α-D-glucosidase (Yeast) is < 10%; in experiment [1], 49%; in experiment [2], < 10%; in experiment [3], 29%; in experiment [4], 90%; at α-D-glucosidase (Rice) it was 55%. Besides, in experiment [4] (setting [6]), the IC50 (commonly the concentration that gives 50% inhibition) is 107 µM. For the same compound, in experiment [5], the “% inhibition, Naringinase Penicillium decumbens” value was “NI (NI = no inhibition)”.
Consider `O=C(O)CN1[C@H](CO)[C@@H](O)[C@H](O)[C@H]1CO` [Compound S2, 2-((2R,3R,4R,5R)-3,4-Dihydroxy-2,5-bis(hydroxymethyl)pyrrolidin-1-yl)acetic acid], for which the inhibition at 800 µM on α-D-glucosidase (Yeast) was < 50%; in experiment [1], 92.7%; in experiment [2], < 50%; in experiment [3], < 50%; on α-D-glucosidase (Rice), < 50%. The IC50 in experiment [4] (setting [7]) is 507 µM.
Consider `O=C(O)CCN1C[C@H](O)[C@@H](O)[C@H](O)[C@H]1CO` [Compound T1], for which the inhibition at 800 µM is < 50% against α-D-glucosidase (Yeast); < 50% in experiment [1]; < 50% in experiment [2]; < 50% in experiment [3]; 99.1% against α-D-glucosidase (Rice). The IC50 worked out at 50 µM in experiment [4] (setting [6]) and 2.4 µM on α-D-glucosidase (Rice) (read-out: IC50, α-D-glucosidase (Rice)).
As to `CCCCOC(=O)[C@@H]1[C@@H](O)[C@H](O)[C@@H](O)CN1CCCC` [Compound T2, (2S,3R,4R,5S)-Butyl 1-butyl-3,4,5-trihydroxypiperidine-2-carboxylate], the inhibition at 800 µM (on α-D-glucosidase (Yeast); in experiment [1]; in experiment [2]; in experiment [3]; against α-D-glucosidase (Rice)) was < 50% throughout. For the same compound, the IC50 in experiment [4] (setting [7]) stood at 280 µM.
For `OC[C@H]1NC[C@H](O)[C@@H](O)[C@@H]1O` [DNJ, 1-deoxynojirimycin, reference compound], the inhibition at 800 µM on α-D-glucosidase (Yeast) was 36%; in experiment [1], 100%; in experiment [2] it was < 10%; in experiment [3], 26%; in experiment [4], < 10%. Moreover, in experiment [3], the “% inhibition, α-D-mannosidase Jack bean” value was 27%. Half-maximal inhibition against α-D-glucosidase (Rice) (IC50) was put at 0.9 µM. Also, the “% inhibition, Naringinase Penicillium decumbens” value in experiment [5] is 20% and 21%.

These data come from patent publication US20110015226A1, “Treatment of Energy Utilization Disease” (SUMMIT CORPORATION PLC, priority 2008, published 2011).
